The values below come from BindingDB's records for doi:10.1016/j.bmcl.2004.01.093 (University of California Irvine, 2004).

A word on the IC50: it is the concentration at which inhibition is half-maximal. Higher therefore signals a need for much substance.

This experiment concerns the target Protein phosphatase 1 catalytic subunit (Oryctolagus cuniculus). As to the kind of experiment: Inhibitory activity against protein phosphatase-1 from rabbit skeletal muscle.
Molecule `CCOC(=O)c1ccc(NC(=O)C2C(C(=O)O)[C@@H]3C=C[C@H]2O3)cc1` (stereo partly specified) registered an IC50 of 76 µM. Take `COC(=O)c1cccc(NC(=O)C2C(C(=O)O)[C@@H]3C=C[C@H]2O3)c1` (stereo partly drawn) [(1S,4R)-3-(3-Methoxycarbonyl-phenylcarbamoyl)-7-oxa-bicyclo[2.2.1]hept-5-ene-2-carboxylic acid]: the IC50 amounted to 60 µM.

Regarding `CNC(=O)C1C(C(=O)O)[C@@H]2C=C[C@H]1O2` (stereo partly drawn) [(1S,4R)-3-Methylcarbamoyl-7-oxa-bicyclo[2.2.1]hept-5-ene-2-carboxylatemethyl-ammonium;], the IC50 was above 100 µM. Consider `N#CC[C@]12C=C[C@H](O1)[C@@H]1C(=O)OC(=O)C12` (stereo partly drawn) [((1R,6R,7S)-3,5-Dioxo-4,10-dioxa-tricyclo[5.2.1.0*2,6*]dec-8-en-1-yl)-acetonitrile], for which the IC50 was above 100 µM.

In turn, `CC(=O)NC[C@@]12CC[C@@H](O1)C1C(=O)OC(=O)[C@H]12` (stereo partly drawn) [N-((1S,2R,7R)-3,5-Dioxo-4,10-dioxa-tricyclo[5.2.1.0*2,6*]dec-1-ylmethyl)-acetamide] registered an IC50 above 100 µM. Then `CC(=O)NC[C@@]12C=C[C@@H](O1)C1C(=O)OC(=O)[C@H]12` (stereo partly drawn) [N-((1S,2R,7R)-3,5-Dioxo-4,10-dioxa-tricyclo[5.2.1.0*2,6*]dec-8-en-1-ylmethyl)-acetamide], with above 100 µM.
